The term IC50 denotes the midpoint of a concentration-inhibition curve.

Experimental findings from PubChem BioAssay AID651630 (Sanford-Burnham Center for Chemical Genomics, 2012) are described below.

One assay has as its system TAG. The assay is described as follows: TAG lipid buildup inhibition with viability readout – cell-based, panel, Nile Red and DAPI fluorescence, H9c2, dose response (AID 651630).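 Note: cells exposed to compound overnight before fixation and staining.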 The settings on record: H9c2 cells, Nile Red TAG fluorescence, oleic acid.
In a further assay the test system is DAPI. Described as above. To be noted: H9c2 cells, DAPI nuclear fluorescence (cytotoxicity counter-readout), oleic acid.

Active and inactive are the calls of the source.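 Rule for the calls: active = lipid-stain IC50 at or below a set limit, with nuclear-stain toxicity IC50 at least five times higher; inactive = the rest.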

As for `O=C(NCCCCCCCN1CCCCCCC1)C(C1CCCCC1)C1CCCCC1`, the IC50 is 17.8 µM (inactive) in the assay with TAG (mean of runs), 15.9 µM with TAG (run 1) and 19.7 µM in the assay on TAG (run 2). For the same compound, the figures for the IC50 cytotoxicity (DAPI nuclear signal decrease) with DAPI (mean of runs), in the assay on DAPI (run 1) and in the assay with DAPI (run 2) were > 25 µM (inactive), > 25 µM and > 25 µM, respectively.

For `CC(C)C[C@@H](CNC(=O)OC(C)(C)C)NC(=O)c1nc[nH]c1C(=O)N[C@@H](CC(C)C)C(=O)CNC[C@H](CC(C)C)NC(=O)c1nc[nH]c1C(=O)N[C@@H](Cc1c[nH]c2ccccc12)C(=O)OC(C)(C)C`, the results for the IC50 in the assay with TAG (mean of runs), in the assay on TAG (run 1) and in the assay with TAG (run 2) were 5.5 µM, 4.49 µM and 6.51 µM, respectively. Besides, the IC50 cytotoxicity (DAPI nuclear signal decrease) with DAPI (mean of runs) is > 25 µM (inactive); in the assay on DAPI (run 1), > 25 µM; in the assay on DAPI (run 2), > 25 µM.

`COc1ccc(-n2nc(C(=O)Nc3ccc4c(c3)OCO4)c3c4ccccc4n(C)c3c2=O)cc1`: the IC50 in the assay with TAG (run 1) was 24.8 µM; in the assay with TAG (run 2), > 25 µM. The IC50 cytotoxicity (DAPI nuclear signal decrease) was > 25 µM (inactive) in the assay with DAPI (mean of runs), > 25 µM with DAPI (run 1) and > 25 µM in the assay with DAPI (run 2).

For the compound `COc1ccc(NS(=O)(=O)c2cc(C)ccc2NC(=O)c2cc(C)oc2C)cc1`, the values for the IC50 in the assay with TAG (mean of runs), in the assay with TAG (run 1) and in the assay on TAG (run 2) were 8.59 µM, 9.83 µM and 7.35 µM, respectively. For the same compound, the IC50 cytotoxicity (DAPI nuclear signal decrease) with DAPI (mean of runs) was > 25 µM (inactive); with DAPI (run 1) it was > 25 µM; in the assay with DAPI (run 2) it was > 25 µM.

Take `COc1cc(-c2nnc3n2N=C(c2ccccc2)CS3)cc(OC)c1OC`: the IC50 in the assay with TAG (mean of runs) was 13.4 µM; in the assay on TAG (run 1), 14.9 µM; in the assay on TAG (run 2), 12 µM. In addition, the IC50 cytotoxicity (DAPI nuclear signal decrease) in the assay on DAPI (mean of runs) is > 25 µM (inactive); in the assay on DAPI (run 1) it was > 25 µM; in the assay on DAPI (run 2) it was > 25 µM.

In the case of `O=C(C[C@H]1C[C@H](C(=O)N2CCCCC2)[C@@]2(CCc3ccccc3)c3[nH]c4ccc(Cl)cc4c3CCN2C1=O)NCc1cccc(C(F)(F)F)c1`, the values for the IC50 in the assay with TAG (mean of runs), in the assay with TAG (run 1) and in the assay with TAG (run 2) were 3.78 µM, 2.76 µM and 4.8 µM, respectively. For the same compound, the IC50 cytotoxicity (DAPI nuclear signal decrease) with DAPI (run 1) and in the assay on DAPI (run 2) was > 25 µM each time.

Consider `COc1ccc(-c2cc(CNc3nc(NC(C)C)nc4cc(-c5ccccc5)sc34)on2)cc1`, for which the IC50 with TAG (mean of runs) was 6.39 µM; in the assay with TAG (run 1), 6.47 µM; with TAG (run 2) it was 6.31 µM. Further, the IC50 cytotoxicity (DAPI nuclear signal decrease) in the assay with DAPI (mean of runs) was > 25 µM (inactive); in the assay on DAPI (run 1), > 25 µM; in the assay with DAPI (run 2) it was > 25 µM.

Regarding `COC(=O)[C@]1(Cc2ccccc2)N[C@H](c2ccc(-c3cccc(Cl)c3)c(OC)c2)[C@@H]2C(=O)N(C)C(=O)[C@@H]21`, the values for the IC50 in the assay on TAG (mean of runs), in the assay with TAG (run 1) and in the assay with TAG (run 2) were > 25 µM (inactive), > 25 µM and > 25 µM, respectively. For the same compound, the IC50 cytotoxicity (DAPI nuclear signal decrease) in the assay with DAPI (mean of runs) is > 25 µM (inactive); with DAPI (run 1), > 25 µM; with DAPI (run 2), > 25 µM.

Turning to `COc1cc(C2=NOC(C(=O)NCc3cccs3)C2)cc(OC)c1OC` (centres undefined), the IC50 in the assay on TAG (mean of runs) was 13.7 µM; in the assay with TAG (run 1), 17.3 µM; in the assay on TAG (run 2), 10.1 µM. Further, the figures for the IC50 cytotoxicity (DAPI nuclear signal decrease) with DAPI (mean of runs), in the assay with DAPI (run 1) and with DAPI (run 2) were > 25 µM (inactive), > 25 µM and > 25 µM, respectively.

With `CC1(C)Cc2c(C#N)c(SCC(=O)c3ccccc3)nc(N3CCOCC3)c2CS1`, the figures for the IC50 in the assay on TAG (mean of runs), in the assay with TAG (run 1) and in the assay on TAG (run 2) were 19.3 µM (inactive), 19.5 µM and 19.1 µM, respectively. Also, the results for the IC50 cytotoxicity (DAPI nuclear signal decrease) with DAPI (mean of runs), with DAPI (run 1) and in the assay on DAPI (run 2) were > 25 µM (inactive), > 25 µM and > 25 µM, respectively.

For the compound `CSC1=NC(C(Cl)(Cl)Cl)N=C(c2ccc(C)cc2)N1` (centres undefined), the results for the IC50 in the assay on TAG (mean of runs), in the assay on TAG (run 1) and in the assay with TAG (run 2) were > 25 µM (inactive), > 25 µM and > 25 µM, respectively. Further, the IC50 cytotoxicity (DAPI nuclear signal decrease) was > 25 µM (inactive) with DAPI (mean of runs), > 25 µM with DAPI (run 1) and > 25 µM in the assay on DAPI (run 2).

On to `CCOC(=O)N1CCN(C(=O)c2ccccc2N(Cc2ccccc2)S(=O)(=O)c2ccc(OC)cc2)CC1`, for which the IC50 in the assay with TAG (mean of runs) is 19.9 µM (inactive); in the assay on TAG (run 1) it was 24.3 µM; with TAG (run 2), 15.5 µM. Further, the IC50 cytotoxicity (DAPI nuclear signal decrease) was > 25 µM (inactive) in the assay on DAPI (mean of runs), > 25 µM in the assay with DAPI (run 1) and > 25 µM in the assay with DAPI (run 2).

With `CN(C)CCNC=C(C(=O)Nc1ccc(Cl)cc1Cl)C(=O)Nc1ccc(Cl)cc1Cl`, the IC50 in the assay on TAG (mean of runs) was 8.69 µM; in the assay on TAG (run 1) it was 8.01 µM; in the assay with TAG (run 2), 9.36 µM. Also, the IC50 cytotoxicity (DAPI nuclear signal decrease) with DAPI (run 1) was 20.8 µM; with DAPI (run 2) it was > 25 µM.

For the compound `COc1cc(OC)c2c(-c3ccccc3)cc(=O)oc2c1C(CCN1CCN(c2ccccc2)CC1)c1ccc(N(C)C)cc1` (centres undefined), the values for the IC50 in the assay with TAG (mean of runs), in the assay on TAG (run 1) and with TAG (run 2) were 6.35 µM, 6.75 µM and 5.95 µM, respectively. The IC50 cytotoxicity (DAPI nuclear signal decrease) is > 25 µM (inactive) in the assay with DAPI (mean of runs), > 25 µM with DAPI (run 1) and > 25 µM with DAPI (run 2).

As for `CCCCCCC(C)(C)c1ccc([C@@H]2C[C@H](O)CC[C@H]2CCCO)c(O)c1`, the figures for the IC50 in the assay with TAG (mean of runs), in the assay with TAG (run 1) and in the assay on TAG (run 2) were 9.3 µM, 7.71 µM and 10.9 µM, respectively. Besides, the IC50 cytotoxicity (DAPI nuclear signal decrease) is 22 µM (inactive) with DAPI (mean of runs), 23.7 µM in the assay with DAPI (run 1) and 20.2 µM in the assay on DAPI (run 2).

`OCCCn1c(C2CCCN2c2nc(-c3ccc(F)cc3)cs2)nc2cc(C(F)(F)F)ccc21` (centres undefined): the IC50 in the assay with TAG (mean of runs) is 14 µM; in the assay with TAG (run 1), 14.1 µM; in the assay with TAG (run 2), 13.9 µM. The IC50 cytotoxicity (DAPI nuclear signal decrease) in the assay on DAPI (mean of runs) is > 25 µM (inactive); in the assay with DAPI (run 1), > 25 µM; in the assay with DAPI (run 2), > 25 µM.

On to `O=C(NC1CCCCC1)C(c1ccccc1)N(Cc1ccc2c(c1)OCO2)C(=O)c1cnsn1` (centres undefined), for which the results for the IC50 in the assay on TAG (mean of runs), with TAG (run 1) and in the assay with TAG (run 2) were 18.7 µM (inactive), 17.2 µM and 20.2 µM, respectively. The figures for the IC50 cytotoxicity (DAPI nuclear signal decrease) with DAPI (mean of runs), in the assay on DAPI (run 1) and with DAPI (run 2) were > 25 µM (inactive), > 25 µM and > 25 µM, respectively.

On to `OC1CC2CCC(C1)N2CCCN1c2ccccc2Sc2ccc(Cl)cc21` (centres undefined), for which the IC50 was 10.3 µM in the assay on TAG (run 1) and > 25 µM with TAG (run 2). Also, the IC50 cytotoxicity (DAPI nuclear signal decrease) was 19.4 µM in the assay on DAPI (run 1) and > 25 µM in the assay with DAPI (run 2).

As to `COCCNC(=O)c1cc2c(-c3ccc(Cl)cc3)nn(C)c2s1`, the IC50 in the assay with TAG (mean of runs) is > 25 µM (inactive); in the assay on TAG (run 1), > 25 µM; in the assay on TAG (run 2), > 25 µM. The IC50 cytotoxicity (DAPI nuclear signal decrease) in the assay on DAPI (mean of runs) is > 25 µM (inactive); in the assay with DAPI (run 1), > 25 µM; in the assay on DAPI (run 2), > 25 µM.

On to `O=C(Nc1ccccc1)c1nc[nH]c1C(=O)NCCCCCCNC(=O)c1[nH]cnc1C(=O)Nc1ccccc1`, for which the IC50 with TAG (run 1) was 24.9 µM; in the assay on TAG (run 2), > 25 µM. Also, the figures for the IC50 cytotoxicity (DAPI nuclear signal decrease) in the assay on DAPI (mean of runs), in the assay on DAPI (run 1) and in the assay with DAPI (run 2) were > 25 µM (inactive), > 25 µM and > 25 µM, respectively.

For the compound `CCN(CC)CCNc1nc(-n2nc(C)cc2C)nc2sc3c(c12)CC(C)(C)OC3`, the IC50 with TAG (mean of runs) was 19.4 µM (inactive); in the assay on TAG (run 1) it was 16.3 µM; with TAG (run 2) it was 22.6 µM. The IC50 cytotoxicity (DAPI nuclear signal decrease) in the assay with DAPI (mean of runs) was > 25 µM (inactive); in the assay with DAPI (run 1), > 25 µM; with DAPI (run 2) it was > 25 µM.

On to `CCOCCC(=O)Nc1ccc2c(c1)c(=O)n(C)n2-c1ccc2ccccc2c1`, for which the IC50 is > 25 µM (inactive) in the assay on TAG (mean of runs), > 25 µM in the assay with TAG (run 1) and > 25 µM with TAG (run 2). Also, the IC50 cytotoxicity (DAPI nuclear signal decrease) in the assay with DAPI (mean of runs) was > 25 µM (inactive); with DAPI (run 1), > 25 µM; with DAPI (run 2), > 25 µM.

With `Cc1nn(-c2ccc([N+](=O)[O-])cc2)c2c1C(c1ccc(OC(F)F)cc1)N1C(=N2)C(=O)Nc2ccccc21` (centres undefined), the values for the IC50 in the assay with TAG (mean of runs), with TAG (run 1) and with TAG (run 2) were 8.6 µM, 6.39 µM and 10.8 µM, respectively. Further, the values for the IC50 cytotoxicity (DAPI nuclear signal decrease) with DAPI (mean of runs), in the assay on DAPI (run 1) and in the assay on DAPI (run 2) were > 25 µM (inactive), > 25 µM and > 25 µM, respectively.

For the compound `COc1cc(NC(=O)Nc2nc(C(N)CCc3ccccc3)cs2)cc(OC)c1OC` (centres undefined), the IC50 in the assay on TAG (mean of runs) is 6.55 µM; in the assay on TAG (run 1), 5.15 µM; in the assay on TAG (run 2) it was 7.96 µM. Besides, the values for the IC50 cytotoxicity (DAPI nuclear signal decrease) in the assay on DAPI (mean of runs), with DAPI (run 1) and in the assay with DAPI (run 2) were > 25 µM (inactive), > 25 µM and > 25 µM, respectively.

On to `COC(=O)c1cc(C(=O)N2CCN(c3cccc(Cl)c3)CC2)cc([N+](=O)[O-])c1`, for which the IC50 with TAG (run 1) is 22.4 µM; with TAG (run 2), > 25 µM. For the same compound, the IC50 cytotoxicity (DAPI nuclear signal decrease) is > 25 µM (inactive) in the assay with DAPI (mean of runs), > 25 µM in the assay on DAPI (run 1) and > 25 µM with DAPI (run 2).

Regarding `COc1cc(NC(=O)c2cc3cccc(OC)c3o2)cc(C(=O)Nc2cccc(C(F)(F)F)c2)c1`, the IC50 in the assay on TAG (mean of runs) is 12 µM; with TAG (run 1) it was 9.27 µM; with TAG (run 2), 14.7 µM. The IC50 cytotoxicity (DAPI nuclear signal decrease) is > 25 µM (inactive) in the assay on DAPI (mean of runs), > 25 µM with DAPI (run 1) and > 25 µM in the assay with DAPI (run 2).
